≈ marks a conversion by molar mass, not a printed value.
Columns and labels:
Format in all cases: functional
Trichophyton rubrum [1] = assay: Antifungal activity against Trichophyton rubrum MTCC 296 at MIC after 48 hrs by disc diffusion method
Penicillium expansum [2] = assay: Antifungal activity against Penicillium expansum MTCC 2006 at MIC after 48 hrs by disc diffusion method
Candida tropicalis [3] = assay: Antifungal activity against Candida tropicalis MTCC 184 at MIC after 48 hrs by disc diffusion method
Candida albicans [4] = assay: Antifungal activity against Candida albicans MTCC 3017 at MIC after 48 hrs by disc diffusion method
Aspergillus tubingensis [5] = assay: Antifungal activity against Aspergillus tubingensis MTCC 2425 at MIC after 48 hrs by disc diffusion method
Aspergillus niger [6] = assay: Antifungal activity against Aspergillus niger MTCC 277 at MIC after 48 hrs by disc diffusion method
Aspergillus fumigatus [7] = assay: Antifungal activity against Aspergillus fumigatus MTCC 3376 at MIC after 48 hrs by disc diffusion method
Aspergillus flavus [8] = assay: Antifungal activity against Aspergillus flavus MTCC 183 at MIC after 48 hrs by disc diffusion method
Trichophyton rubrum [9] = assay: Antifungal activity against Trichophyton rubrum MTCC 296 at 30 degC after 72 hrs by microbroth dilution technique; conditions: MTCC 296, 72 h
Penicillium expansum [10] = assay: Antifungal activity against Penicillium expansum MTCC 2006 at 30 degC after 72 hrs by microbroth dilution technique; conditions: MTCC 2006, 72 h
Candida tropicalis [11] = assay: Antifungal activity against Candida tropicalis MTCC 184 at 37 degC after 48 hrs by microbroth dilution technique; conditions: MTCC 184, 48 h
Candida albicans [12] = assay: Antifungal activity against Candida albicans MTCC 3017 at 37 degC after 48 hrs by microbroth dilution technique; conditions: MTCC 3017, 48 h
Aspergillus tubingensis [13] = assay: Antifungal activity against Aspergillus tubingensis MTCC 2425 at 30 degC after 72 hrs by microbroth dilution technique; conditions: MTCC 2425, 72 h
Aspergillus niger [14] = assay: Antifungal activity against Aspergillus niger MTCC 277 at 30 degC after 72 hrs by microbroth dilution technique; conditions: MTCC 277, 72 h
Aspergillus fumigatus [15] = assay: Antifungal activity against Aspergillus fumigatus MTCC 3376 at 30 degC after 72 hrs by microbroth dilution technique; conditions: MTCC 3376, 72 h
Aspergillus flavus [16] = assay: Antifungal activity against Aspergillus flavus MTCC 183 at 30 degC after 72 hrs by microbroth dilution technique; conditions: MTCC 183, 72 h
Staphylococcus aureus [17] = assay: Antibacterial activity against Staphylococcus aureus MTCC 902 after 24 hrs by two-fold dilution method; conditions: MTCC 902, 24 h
Pseudomonas aeruginosa [18] = assay: Antibacterial activity against Pseudomonas aeruginosa MTCC 2642 after 24 hrs by two-fold dilution method; conditions: MTCC 2642, 24 h
Klebsiella pneumoniae [19] = assay: Antibacterial activity against Klebsiella pneumoniae MTCC 109 after 24 hrs by two-fold dilution method; conditions: MTCC 109, 24 h
Escherichia coli [20] = assay: Antibacterial activity against Escherichia coli MTCC 2622 after 24 hrs by two-fold dilution method; conditions: MTCC 2622, 24 h
Bacillus subtilis [21] = assay: Antibacterial activity against Bacillus subtilis MTCC 2756 after 24 hrs by two-fold dilution method; conditions: MTCC 2756, 24 h
Penicillium expansum [22] = assay: Ratio of amphotericin B MIC to compound MIC for Penicillium expansum MTCC 2006
[23] = test system: Staphylococcus epidermidis; assay: Antibacterial activity against Staphylococcus epidermidis MTCC 435 at MIC after overnight incubation by disc diffusion method
Staphylococcus aureus [24] = assay: Antibacterial activity against Staphylococcus aureus MTCC 902 at MIC after overnight incubation by disc diffusion method
Pseudomonas aeruginosa [25] = assay: Antibacterial activity against Pseudomonas aeruginosa MTCC 2642 at MIC after overnight incubation by disc diffusion method
Klebsiella pneumoniae [26] = assay: Antibacterial activity against Klebsiella pneumoniae MTCC 109 at MIC after overnight incubation by disc diffusion method
Escherichia coli [27] = assay: Antibacterial activity against Escherichia coli MTCC 2622 at MIC after overnight incubation by disc diffusion method
Bacillus subtilis [28] = assay: Antibacterial activity against Bacillus subtilis MTCC 2756 at MIC after overnight incubation by disc diffusion method
[29] = test system: Staphylococcus epidermidis; assay: Antibacterial activity against Staphylococcus epidermidis MTCC 435 after 24 hrs by two-fold dilution method; conditions: MTCC 435, 24 h

| MIC (Trichophyton rubrum [9]) [µg/mL] | MIC (Penicillium expansum [10]) [µg/mL] | MIC (Candida tropicalis [11]) [µg/mL] | MIC (Candida albicans [12]) [µg/mL] | MIC (Aspergillus tubingensis [13]) [µg/mL] | MIC (Aspergillus niger [14]) [µg/mL] | MIC (Aspergillus fumigatus [15]) [µg/mL] | MIC (Aspergillus flavus [16]) [µg/mL] | SMILES | diameter of the inhibition zone (DIZ) (Trichophyton rubrum [1]) [mm] | diameter of the inhibition zone (DIZ) (Penicillium expansum [2]) [mm] | diameter of the inhibition zone (DIZ) (Candida tropicalis [3]) [mm] | diameter of the inhibition zone (DIZ) (Candida albicans [4]) [mm] | diameter of the inhibition zone (DIZ) (Aspergillus tubingensis [5]) [mm] | diameter of the inhibition zone (DIZ) (Aspergillus niger [6]) [mm] | diameter of the inhibition zone (DIZ) (Aspergillus fumigatus [7]) [mm] | diameter of the inhibition zone (DIZ) (Aspergillus flavus [8]) [mm] | MIC (Staphylococcus aureus [17]) [µg/mL] | MIC (Pseudomonas aeruginosa [18]) [µg/mL] | MIC (Klebsiella pneumoniae [19]) [µg/mL] | MIC (Bacillus subtilis [21]) [µg/mL] | other results |
| --- | --- | --- | --- | --- | --- | --- | --- | --- | --- | --- | --- | --- | --- | --- | --- | --- | --- | --- | --- | --- | --- |
| 4 (≈ 4.33 µM) | 64 (≈ 69.3 µM) | 8 (≈ 8.66 µM) | 16 (≈ 17.3 µM) | 64 (≈ 69.3 µM) | 32 (≈ 34.6 µM) | 16 (≈ 17.3 µM) | 16 (≈ 17.3 µM) | C[C@@H]1[C@H](O)[C@@H](C)/C=C/C=C/C=C/C=C/C=C/C=C/C=C/[C@H](O[C@@H]2O[C@H](C)[C@@H](O)[C@H](N)[C@@H]2O)C[C@@H]2O[C@](O)(C[C@@H](O)C[C@@H](O)[C@H](O)CC[C@@H](O)C[C@@H](O)CC(=O)O[C@H]1C)C[C@H](O)[C@H]2C(=O)O [AMPHOTERICIN B] | 29 | 20 | 24 | 31 | 30 | 26 | 25 | 22 | – | – | – | – | – |
| 2 (≈ 9.42 µM) | 8 (≈ 37.7 µM) | 4 (≈ 18.8 µM) | 8 (≈ 37.7 µM) | 32 (≈ 151 µM) | 16 (≈ 75.4 µM) | 32 (≈ 151 µM) | 16 (≈ 75.4 µM) | O=C(O)C[C@@H]1NC(=O)[C@@H]2CCCN2C1=O | 38 | 29 | 33 | 26 | 25 | 22 | 23 | 28 | 64 (≈ 302 µM) | 16 (≈ 75.4 µM) | 8 (≈ 37.7 µM) | 32 (≈ 151 µM) | MIC (Escherichia coli [20]): 16 µg/mL (≈ 75.4 µM); Ratio (Penicillium expansum [22]): 8; diameter of the inhibition zone (DIZ) [23]: 24 mm; diameter of the inhibition zone (DIZ) (Staphylococcus aureus [24]): 21 mm; diameter of the inhibition zone (DIZ) (Pseudomonas aeruginosa [25]): 26 mm; diameter of the inhibition zone (DIZ) (Klebsiella pneumoniae [26]): 31 mm; diameter of the inhibition zone (DIZ) (Escherichia coli [27]): 26 mm; diameter of the inhibition zone (DIZ) (Bacillus subtilis [28]): 24 mm; MIC [29]: 64 µg/mL (≈ 302 µM) |
| – | – | – | – | – | – | – | – | O=C(O)c1cn(C2CC2)c2cc(N3CCNCC3)c(F)cc2c1=O [CIPROFLOXACIN] | – | – | – | – | – | – | – | – | 1 (≈ 3.02 µM) | 1 (≈ 3.02 µM) | 0.5 (≈ 1.51 µM) | 2 (≈ 6.04 µM) | diameter of the inhibition zone (DIZ) [23]: 31 mm; diameter of the inhibition zone (DIZ) (Staphylococcus aureus [24]): 31 mm; diameter of the inhibition zone (DIZ) (Pseudomonas aeruginosa [25]): 33 mm; diameter of the inhibition zone (DIZ) (Klebsiella pneumoniae [26]): 33 mm; diameter of the inhibition zone (DIZ) (Escherichia coli [27]): 32 mm; diameter of the inhibition zone (DIZ) (Bacillus subtilis [28]): 30 mm; MIC [29]: 0.25 µg/mL (≈ 0.754 µM) |

| SMILES | MIC (Trichophyton rubrum [9]) [µg/mL] | MIC (Penicillium expansum [10]) [µg/mL] | MIC (Candida tropicalis [11]) [µg/mL] | MIC (Candida albicans [12]) [µg/mL] | MIC (Aspergillus tubingensis [13]) [µg/mL] | MIC (Aspergillus niger [14]) [µg/mL] | MIC (Aspergillus fumigatus [15]) [µg/mL] | MIC (Aspergillus flavus [16]) [µg/mL] | diameter of the inhibition zone (DIZ) (Trichophyton rubrum [1]) [mm] | diameter of the inhibition zone (DIZ) (Penicillium expansum [2]) [mm] | diameter of the inhibition zone (DIZ) (Candida tropicalis [3]) [mm] | diameter of the inhibition zone (DIZ) (Candida albicans [4]) [mm] | diameter of the inhibition zone (DIZ) (Aspergillus tubingensis [5]) [mm] | diameter of the inhibition zone (DIZ) (Aspergillus niger [6]) [mm] | diameter of the inhibition zone (DIZ) (Aspergillus fumigatus [7]) [mm] | diameter of the inhibition zone (DIZ) (Aspergillus flavus [8]) [mm] | MIC (Staphylococcus aureus [17]) [µg/mL] | MIC (Pseudomonas aeruginosa [18]) [µg/mL] | MIC (Klebsiella pneumoniae [19]) [µg/mL] | MIC (Bacillus subtilis [21]) [µg/mL] | other results |
| --- | --- | --- | --- | --- | --- | --- | --- | --- | --- | --- | --- | --- | --- | --- | --- | --- | --- | --- | --- | --- | --- |
| O=C(O)C[C@@H]1NC[C@@H]2CCCN2C1=O | 8 (≈ 40.4 µM) | 500 (≈ 2520 µM) | 125 (≈ 631 µM) | 250 (≈ 1260 µM) | 125 (≈ 631 µM) | 64 (≈ 323 µM) | 250 (≈ 1260 µM) | 32 (≈ 161 µM) | 28 | 13 | 14 | 15 | 21 | 19 | 18 | 24 | 250 (≈ 1260 µM) | 125 (≈ 631 µM) | 32 (≈ 161 µM) | 125 (≈ 631 µM) | MIC (Escherichia coli [20]): 64 µg/mL (≈ 323 µM); diameter of the inhibition zone (DIZ) [23]: 23 mm; diameter of the inhibition zone (DIZ) (Staphylococcus aureus [24]): 16 mm; diameter of the inhibition zone (DIZ) (Pseudomonas aeruginosa [25]): 14 mm; diameter of the inhibition zone (DIZ) (Klebsiella pneumoniae [26]): 17 mm; diameter of the inhibition zone (DIZ) (Escherichia coli [27]): 19 mm; diameter of the inhibition zone (DIZ) (Bacillus subtilis [28]): 15 mm; MIC [29]: 64 µg/mL (≈ 323 µM) |

— ChEMBL document CHEMBL2424562, “A comparative study of antimicrobial properties of cyclo(l-Pro- l-Asp) with its 2-ketopiperazine analog” (2013)
